Data on 36 compounds can be found in patent US6881741B2 (ViroChem Pharma Inc., priority 2001, dated 2005).

The structures appear in SMILES notation. Like-named read-outs stand apart in the source and are kept apart here.

What is called IC50 is the concentration that gives 50% inhibition.

In this experiment the target is recombinant HCV NS5B (HCV RNA-dependent RNA polymerase) (Hepatitis C virus genotype 1b, UniProt P26663). Put plainly: biochemical.
The mark [1] stands for this setting: related polymerase activity (Example 27 list), read-out: IC50.

recombinant HCV NS5B (HCV RNA-dependent RNA polymerase), sequence (P26663 2420-3010 limits assumed): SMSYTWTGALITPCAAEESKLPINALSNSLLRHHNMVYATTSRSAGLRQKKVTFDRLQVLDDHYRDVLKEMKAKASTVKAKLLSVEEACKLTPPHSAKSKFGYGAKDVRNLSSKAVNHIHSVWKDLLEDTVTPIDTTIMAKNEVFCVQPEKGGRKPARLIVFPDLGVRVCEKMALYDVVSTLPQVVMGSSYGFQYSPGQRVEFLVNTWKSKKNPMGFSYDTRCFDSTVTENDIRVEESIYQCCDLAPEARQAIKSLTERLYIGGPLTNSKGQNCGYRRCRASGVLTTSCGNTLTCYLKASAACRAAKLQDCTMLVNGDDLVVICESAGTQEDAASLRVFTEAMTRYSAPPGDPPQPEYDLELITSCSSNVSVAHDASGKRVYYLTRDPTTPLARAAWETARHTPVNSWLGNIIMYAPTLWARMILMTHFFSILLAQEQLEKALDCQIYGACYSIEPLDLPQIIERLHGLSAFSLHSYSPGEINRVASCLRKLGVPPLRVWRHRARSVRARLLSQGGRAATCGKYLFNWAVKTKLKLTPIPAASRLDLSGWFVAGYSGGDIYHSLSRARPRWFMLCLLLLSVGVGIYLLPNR

Regarding `CC(C)N(C(=O)c1ccc(Cl)cc1O)c1cc(-c2ccccc2)sc1C(=O)O` [Compound 313, 3-[(4-CHLORO-2-HYDROXY-BENZOYL)- ISOPROPYL-AMINO]-5-PHENYL- THIOPHENE-2-CARBOXYLIC ACID], under setting [1], the IC50 was below 5 µM.

Turning to `Cc1c(-c2ccccc2)sc(C(=O)O)c1N(C(=O)c1ccc(Cl)cc1Cl)C(C)C` [Compound 314, 3-[(2,4-DICHLORO-BENZOYL)- ISOPROPYL-AMINO]-4-METHYL-5- PHENYL-THIOPHENE-2-CARBOXYLIC ACID], the IC50 under setting [1] fell in the range of 5 to 20 µM.

For `Cc1ccc(S(=O)(=O)Nc2cc(C(C)(C)C)sc2C(=O)O)c(C)c1` [Compound 315, 5-#TERT!-BUTYL-3-(2,4-DIMETHYL- BENZENESULFONYLAMINO)- THIOPHENE-2-CARBOXYLIC ACID], the IC50 under setting [1] was 5 to 20 µM.

Consider `CC1CCC(C(=O)N(c2cc(-c3ccccc3)sc2C(=O)O)C(C)C)CC1` (stereo not drawn) [Compound 316, 3-[ISOPROPYL-(4-METHYL- CYCLOHEXANECARBONYL)-AMINO]-5- PHENYL-THIOPHENE-2-CARBOXYLIC ACID], for which the IC50 (IC50) was above 20 µM.

In the case of `CC1CCC(C(=O)N(c2cc(-c3ccccc3)sc2C(=O)O)C(C)C)CC1` (stereo not drawn) [Compound 317, 3-[ISOPROPYL-(4-METHYL- CYCLOHEXANECARBONYL)-AMINO]-5- PHENYL-THIOPHENE-2-CARBOXYLIC ACID], the IC50 (IC50) is below 5 µM.

As for `CCCN(C(=O)c1ccc(C)cc1)c1cc(-c2ccc(CCC(=O)O)cc2)sc1C(=O)O` [Compound 318, 5-[4-(2-CARBOXY-ETHYL)-PHENYL]-3-[(4- METHYL-BENZOYL)-PROPYL-AMINO]- THIOPHENE-2-CARBOXYLIC ACID], the concentration for half-maximal inhibition (IC50) under setting [1] was 5 to 20 µM.

In the case of `Cc1ccc(S(=O)(=O)Nc2cc(-c3ccc(CO)cc3)sc2C(=O)O)c(C)c1` [Compound 320, 3-(2,4-DIMETHYL- BENZENESULFONYLAMINO)-5-(4- HYDROXYMETHYL-PHENYL)- THIOPHENE-2-CARBOXYLIC ACID], the IC50 under setting [1] is below 5 µM.

Take `Cc1ccc(S(=O)(=O)Nc2cc(-c3ccc(S(C)(=O)=O)cc3)sc2C(=O)O)c(C)c1` [Compound 321, 3-(2,4-DIMETHYL- BENZENESULFONYLAMINO)-5-(4- METHANESULFONYL-PHENYL)- THIOPHENE-2-CARBOXYLIC ACID]: the concentration for half-maximal inhibition (IC50) under setting [1] was below 5 µM.

Regarding `Cc1ccc(S(=O)(=O)Nc2cc(-c3ccc(/C=C/C(=O)O)cc3)sc2C(=O)O)c(C)c1` [Compound 322, 5-[4-(2-CARBOXY-VINYL)-PHENYL]-3-(2,4- DIMETHYL-BENZENESULFONYLAMINO)- THIOPHENE-2-CARBOXYLIC ACID], the IC50 under setting [1] was below 5 µM.

On to `C=CCN(C(=O)c1ccc(C)cc1)c1cc(-c2cccc(/C=C/C(=O)O)c2)sc1C(=O)O` [Compound 323, 3-[ALLYL-(4-METHYL-BENZOYL)-AMINO]- 5-[3-(2-CARBOXY-VINYL)-PHENYL]- THIOPHENE-2-CARBOXYLIC ACID], for which the half-maximal inhibitory concentration (IC50) under setting [1] fell in the range of 5 to 20 µM.

Take `Cc1cc(C)c(C(=O)N(c2cc(-c3ccccc3)sc2C(=O)O)C(C)C)c(C)c1` [Compound 324, 3-[ISOPROPYL-(2,4,6-TRIMETHYL- BENZOYL)-AMINO]-5-PHENYL- THIOPHENE-2-CARBOXYLIC ACID]: the IC50 under setting [1] was in the range of 5 to 20 µM.

Regarding `CCCN(C(=O)c1ccc(C)cc1)c1cc(-c2cccc(CCC(=O)O)c2)sc1C(=O)O` [Compound 325, 5-[3-(2-CARBOXY-ETHYL)-PHENYL]-3-[(4- METHYL-BENZOYL)-PROPYL-AMINO]- THIOPHENE-2-CARBOXYLIC ACID], under setting [1], the IC50 was 5 to 20 µM.

Consider `CC(C)N(C(=O)c1ccc(C(F)(F)F)cc1F)c1cc(-c2ccccc2)sc1C(=O)O` [Compound 326, 3-[(2-FLUORO-4-TRIFLUOROMETHYL- BENZOYL)-ISOPROPYL-AMINO]-5- PHENYL-THIOPHENE-2-CARBOXYLIC ACID], for which the concentration for half-maximal inhibition (IC50) under setting [1] is below 5 µM.

`CC(C)(C)N(C(=O)c1ccc(Cl)cc1Cl)c1cc(-c2ccccc2)sc1C(=O)O` [Compound 327, 3-[#TERT!-BUTYL-(2,4-DICHLORO- BENZOYL)-AMINO]-5-PHENYL- THIOPHENE-2-CARBOXYLIC ACID]: under setting [1], the 50% inhibitory concentration (IC50) was below 5 µM.

As to `CC(C)N(C(=O)c1ccc(Cl)cc1N)c1cc(-c2ccccc2)sc1C(=O)O` [Compound 328, 3-[(2-AMINO-4-CHLORO-BENZOYL)- ISOPROPYL-AMINO]-5-PHENYL- THIOPHENE-2-CARBOXYLIC ACID], the 50% inhibitory concentration (IC50) under setting [1] is below 5 µM.

For the compound `CC(C)N(C(=O)c1ccc(Cl)cc1[N+](=O)[O-])c1cc(-c2ccccc2)sc1C(=O)O` [Compound 329, 3-[(4-CHLORO-2-NITRO-BENZOYL)- ISOPROPYL-AMINO]-5-PHENYL- THIOPHENE-2-CARBOXYLIC ACID], the IC50 under setting [1] is below 5 µM.

As for `Cc1ccc(C(=O)N(Cc2cccc(C(F)(F)F)c2)c2cc(-c3ccccc3)sc2C(=O)O)cc1` [Compound 330, 3-[(4-METHYL-BENZOYL)-(3- TRIFLUOROMETHYL-BENZYL)-AMINO]-5- PHENYL-THIOPHENE-2-CARBOXYLIC ACID], the half-maximal inhibitory concentration (IC50) under setting [1] is below 5 µM.

As for `Cc1ccc(C(=O)N(c2cc(-c3ccccc3)sc2C(=O)O)C(C)C)cc1F` [Compound 331, 3-[(3-FLUORO-4-METHYL-BENZOYL)- ISOPROPYL-AMINO]-5-PHENYL- THIOPHENE-2-CARBOXYLIC ACID], under setting [1], the half-maximal inhibitory concentration (IC50) was below 5 µM.

Take `Cc1ccc(S(=O)(=O)Nc2cc(-c3ccc(C(=O)O)cc3)sc2C(=O)O)c(C)c1` [Compound 332, 5-(4-CARBOXY-PHENYL)-3-(2,4-DIMETHYL- BENZENESULFONYLAMINO)- THIOPHENE-2- CARBOXYLIC ACID]: the IC50 under setting [1] is below 5 µM.

As for `O=C(O)c1sc(-c2ccccc2)cc1N(C(=O)c1ccc(Cl)cc1Cl)C1CC1` [Compound 333, 3-[CYCLOPROPYL-(2,4-DICHLORO- BENZOYL)-AMINO]-5-PHENYL- THIOPHENE-2-CARBOXYLIC ACID], the IC50 under setting [1] is below 5 µM.

In the case of `Cc1ccc(C(=O)N(Cc2cccc(C(C)(C)C)c2)c2cc(-c3ccccc3)sc2C(=O)O)cc1` [Compound 334, 3-[(3-TERT-BUTYL-BENZYL)-(4-METHYL- BENZOYL)-AMINO]-5-PHENYL- THIOPHENE-2-CARBOXYLIC ACID], under setting [1], the IC50 was below 5 µM.

Consider `Cc1ccc(C(=O)N(Cc2cccc(Cl)c2)c2cc(-c3ccccc3)sc2C(=O)O)cc1` [Compound 335, 3-[(3-CHLORO-BENZYL)-(4-METHYL- BENZOYL)-AMINO]-5-PHENYL- THIOPHENE-2-CARBOXYLIC ACID], for which the 50% inhibitory concentration (IC50) under setting [1] was below 5 µM.

In the case of `Cc1ccc(C(=O)N(Cc2ccc(F)cc2F)c2cc(-c3ccccc3)sc2C(=O)O)cc1` [Compound 336, 3-[(2,4-DIFLUORO-BENZYL)-(4-METHYL- BENZOYL)-AMINO]-5-PHENYL- THIOPHENE-2-CARBOXYLIC ACID], the half-inhibitory concentration (IC50) under setting [1] was below 5 µM.

With `CC(C)N(C(=O)c1cc(F)c(Cl)cc1F)c1cc(-c2ccccc2)sc1C(=O)O` [Compound 337, 3-[(4-CHLORO-2,5-DIFLUORO-BENZOYL)- ISOPROPYL-AMINO]-5-PHENYL- THIOPHENE-2-CARBOXYLIC ACID], under setting [1], the half-maximal inhibitory concentration (IC50) was in the range of 5 to 20 µM.

For `C=C(C)Cc1cc(N(C(=O)c2ccc(Cl)cc2Cl)C(C)C)c(C(=O)O)s1` [Compound 338, 3-[(2,4-DICHLORO-BENZOYL)- ISOPROPYL-AMINO]-5-(2-METHYL- ALLYL)-THIOPHENE- 2-CARBOXYLIC ACID], the IC50 under setting [1] is below 5 µM.

In the case of `C=CCN(C(=O)Cc1ccc(Cl)cc1)c1cc(-c2ccccc2)sc1C(=O)O` [Compound 339, 3-(ALLYL-[2-(4-CHLORO-PHENYL)- ACETYL]-AMINO)-5-PHENYL-THIOPHENE- 2-CARBOXYLIC ACID], the concentration for half-maximal inhibition (IC50) under setting [1] fell in the range of 5 to 20 µM.

As to `Cc1ccc(C(=O)N(Cc2ccccc2)c2cc(-c3ccccc3)sc2C(=O)O)cc1` [Compound 340, 3-[BENZYL-(4-METHYL-BENZOYL)- AMINO]-5-PHENYL-THIOPHENE-2- CARBOXYLIC ACID], the IC50 under setting [1] was below 5 µM.

As to `Cc1ccc(C(=O)N(Cc2ccc(Cl)cc2)c2cc(-c3ccccc3)sc2C(=O)O)cc1` [Compound 341, 3-[(4-CHLORO-BENZYL)-(4-METHYL- BENZOYL)-AMINO]-5-PHENYL- THIOPHENE-2-CARBOXYLIC ACID], under setting [1], the IC50 is below 5 µM.

For the compound `Cc1ccc(C(=O)N(Cc2ccc([N+](=O)[O-])cc2)c2cc(-c3ccccc3)sc2C(=O)O)cc1` [Compound 342, 3-[(4-METHYL-BENZOYL)-(4-NITRO- BENZYL)-AMINO]-5-PHENYL-THIOPHENE- 2-CARBOXYLIC ACID], the concentration for half-maximal inhibition (IC50) under setting [1] is below 5 µM.

As for `Cc1ccc(C(=O)N(Cc2ccccc2C)c2cc(-c3ccccc3)sc2C(=O)O)cc1` [Compound 343, 3-[(4-METHYL-BENZOYL)-(2-METHYL- BENZYL)-AMINO]-5-PHENYL-THIOPHENE- 2-CARBOXYLIC ACID], the IC50 under setting [1] was below 5 µM.

For `COc1cccc(CN(C(=O)c2ccc(C)cc2)c2cc(-c3ccccc3)sc2C(=O)O)c1` [Compound 344, 3-[(3-METHOXY-BENZYL)-(4-METHYL- BENZOYL)-AMINO]-5-PHENYL- THIOPHENE-2-CARBOXYLIC ACID], the half-inhibitory concentration (IC50) under setting [1] is below 5 µM.

With `Cc1ccc(C(=O)N(Cc2ccccc2Cl)c2cc(-c3ccccc3)sc2C(=O)O)cc1` [Compound 345, 3-[(2-CHLORO-BENZYL)-(4-METHYL- BENZOYL)-AMINO]-5-PHENYL- THIOPHENE-2-CARBOXYLIC ACID], the IC50 under setting [1] is below 5 µM.

With `CC(C)Cc1cc(N(C(=O)c2ccc(Cl)cc2Cl)C(C)C)c(C(=O)O)s1` [Compound 346, 3-[(2,4-DICHLORO-BENZOYL)- ISOPROPYL-AMINO]-5-ISOBUTYL- THIOPHENE-2-CARBOXYLIC ACID], the half-inhibitory concentration (IC50) under setting [1] was below 5 µM.

In the case of `C=CCN(C(=O)Cc1ccc2ccccc2c1)c1cc(-c2ccccc2)sc1C(=O)O` [Compound 347, 3-[ALLYL-(2-NAPHTHALEN-2-YL-ACETYL)- AMINO]-5-PHENYL-THIOPHENE-2- CARBOXYLIC ACID], the IC50 under setting [1] is above 20 µM.

For the compound `C=CCN(C(=O)Cc1ccc(Cl)cc1Cl)c1cc(-c2ccccc2)sc1C(=O)O` [Compound 348, 3-{ALLYL-[2-(2,4-DICHLORO-PHENYL)- ACETYL]-AMINO}-5-PHENYL-THIOPHENE- 2-CARBOXYLIC ACID], the half-maximal inhibitory concentration (IC50) under setting [1] lay within 5 to 20 µM.

With `C=CCN(C(=O)Cc1ccc(F)cc1Cl)c1cc(-c2ccccc2)sc1C(=O)O` [Compound 349, 3-{ALLYL-[2-(2-CHLORO-4-FLUORO- PHENYL)-ACETYL]-AMINO}-5-PHENYL- THIOPHENE-2-CARBOXYLIC ACID], the concentration for half-maximal inhibition (IC50) under setting [1] fell in the range of 5 to 20 µM.
